Reference: patent publication US12480954B2, “Method for assisting evaluation of condition of kidneys, system for evaluating condition of kidneys, and program for evaluating condition of kidneys” (Kagami Inc., priority 2019, dated 2025)

Experiments:
[1] = human, in vivo
Text: The test protocol was approved by the ethics committee of the national research and development agency: National Institutes of Biomedical Innovation, Health and Nutrition, and written informed consent was obtained from all of the test subjects.
[formula] • [UD-Ser represents urine D-serine level, PD-Ser represents blood D-serine level, UCre represents urine creatinine level and PCre represents blood creatinine level.]
A retrospective study was used for primary aldosteronism (PA), myeloma kidney […], diabetic nephropathy (DM) and IgA nephropathy (IGAN), from a cohort of kidney disease patients admitted to the Department of Nephrology, Osaka University Hospital for diagnosis and/or treatment from 2016 to 2017. Since IgA nephropathy test subjects had blood pressure above the reference range, they were given an angiotensin II receptor antagonist (ARB) as an antihypertensive drug. Separately, 15 healthy volunteers were recruited as non-kidney disease subjects by the National Institutes of Biomedical Innovation, Health and Nutrition. The test protocol was approved by the ethics committee of each facility, and written informed consent was obtained from all of the patients.
Sample preparation from human blood plasma and urine was carried out as follows: First a 20-fold volume of methanol was added to and completely mixed with the blood plasma. After centrifugation, 10 μL of supernatant obtained from the methanol homogenate was transferred to a brown tube and dried under reduced pressure. To the residue there were added 20 μL of 200 mM sodium borate buffer (pH 8.0) and 5 μL of fluorescent labeling reagent (40 mM 4-fluoro-7-nitro-2,1,3-benzooxadiazole (NBD-F) in anhydrous MeCN), and the mixture was then heated at 60° C. for 2 minutes. The reaction was suspended by addition of 75 μL of aqueous 0.1% TFA (v/v), and 2 μL of the reaction mixture was supplied to two-dimensional HPLC.
The amino acid optical isomers were quantified using the following two-dimensional HPLC system. NBD derivatives of the amino acids were separated and eluted using a reversed-phase column (KSAA RP, 1.0 mm i.d.×400 mm; Shiseido Corp.), in the mobile phase (5 to 35% MeCN, 0 to 20% THF, 0.05% TFA). The column temperature was 45° C. and the mobile phase flow rate was 25 μL/min. The separated amino acid fraction was separated off using a multi loop valve, and optically resolved in a continuous manner with a chiral column (KSAACSP-001S, 1.5 mm i.d.×250 mm; Shiseido Corp.). The mobile phase used was a MeOH/MeCN mixed solution containing citric acid (0 to 10 mM) or formic acid (0 to 4%), according to the amino acid retention. NBD-amino acids were detected by fluorescence detection at 530 nm using excitation light of 470 nm. The NBD-amino acid retention time was identified from standard amino acid optical isomers and quantified by a calibration curve.
The blood urine D-serine level and blood urine D-asparagine level and creatinine level were calculated by substitution into the following formulas.
[formula] • [where • UD-Ser represents the level of D-serine in the urine, • PD-Ser represents the level of D-serine in the blood, • UCre represents the level of creatinine in the urine, and • PCre represents the level of creatinine in the blood]
[formula] • [where • UD-Asn represents the level of D-asparagine in the urine, • PD-Asn represents the level of D-asparagine in the blood, • UCre represents the level of creatinine in the urine, and • PCre represents the level of creatinine in the blood] Evaluation and Assessment of Pathology

[2] = set-up: species or system human; conditions: in vivo
Text: Blood D-serine levels and D-asparagine levels correlate more strongly with glomerular filtration rate than the conventional marker of creatinine. […] In healthy persons without presence of disease, blood D-serine level is kept to within a very narrow range of about 1 to 2% of total serine, whereas its presence in urine reaches 30 to 60%. […] Moreover, in healthy persons without presence of disease, blood D-asparagine level is kept to within a very narrow range of about 0.1 to 0.6% of total asparagine, whereas its presence in urine reaches 20 to 50%.

[3] = D-serine excretion rate monitored before and after therapeutic intervention in a systemic lupus erythematosus patient; assay type: in vivo, human; conditions: SLE patient
Description: After obtaining written informed consent from a person admitted to Osaka University Hospital with systemic lupus erythematosus, with ethical approval from the same University, their blood and urine were periodically sampled. The values rapidly worsened, with serum creatinine increasing from a level of 0.57 mg/dL 90 days before admission to 11.68 mg/dL and urine protein concentration increasing from 0.5 g/g Cre to 4.0 g/g Cre, while blood pressure was 122/65 mmHg, HR was 64 bpm, percutaneous arterial oxygen saturation was 100% (indoor air) and body temperature was 36.5° C. Mouth ulcers, alopecia and retinal hemorrhage were also noted, but no abnormal lung sounds, heart sounds or lower extremity edema was observed. Rapidly progressive glomerulonephritis was suspected in clinical testing, with blood hemoglobin of 4.6 g/dL, normal level complement of C3: 88 mg/dL and C4: 21 mg/dL, positive anti-dsDNA antibody of 13.0 IU/mL1, and P-ANCA of 182.0 U/mL, and therefore plasma exchange (PE) sessions were continued, and kidney biopsy was performed. Crescent-shaped cells were found in 79% of the glomeruli, fibrous crescent-shaped cells were found in 13%, and the glomerular capillaries were thickened with foam and spikes, although no glomerulosclerosis was observed. […] Tubular atrophy was localized and moderate. In immunofluorescent staining, the granular glomerular capillary walls were positive overall for IgG, IgA, IgM, C3, C4 and C1q. Diagnosis was latent ANCA-related crescent-shaped glomerular nephritis, with lupus nephritis class V. Treatment was by prednisolone pulse therapy (3 days, 1 g), followed by oral prednisolone (40 mg/day), intermittent pulse intravenous cyclophosphamide therapy (500 mg/m^2) and mycophenolate mofetil (MMF, 500 mg/day). Eight series of plasma exchange was also carried out. In response to this treatment, the serum creatinine level fell to 0.72 mg/dL, but the urine protein level persisted. […] The harvested blood and urine samples were prepared in the same manner as Example 1, and the D-serine was quantified while also calculating the D-serine excretion rate.

logarithm of reference values of excretion rate [1] | mean logarithmic value of excretion rate [1] | reference values of excretion rate, mean with standard deviation of ±1.96 [1] | excreted [2] | reabsorbed in the renal tubules [2] | Compound | other results
3.95-4.37 | 4.16 | 51.65-78.74% | 50-80% |  | NC(=O)C[C@@H](N)C(=O)O [D-asparagine] | 
3.75-4.50 | 4.12 | 42.46-89.66% | 50-80% |  | N[C@H](CO)C(=O)O [D-serine] | D-serine excretion rate ([3]; after 48 hours (so in the source)): 41.7%; D-serine excretion rate ([3]; after 8 days): 0; D-serine excretion rate ([3]; after 12 days): 0; D-serine excretion rate ([3]; after 16 days): 0; D-serine excretion rate ([3]; after 22 days): 0; D-serine excretion rate ([3]; after 29 days): 58.9%; D-serine excretion rate ([3]; after 34 days): 87.6%; D-serine excretion rate ([3]; immediately after start of treatment): 0
 |  |  |  | about 99% | NC(=O)C[C@H](N)C(=O)O [L-asparagine] | 
 |  |  |  | about 99% | N[C@@H](CO)C(=O)O [L-serine] | 
